{"source": "the NIST ThermoML archive (doi:10.1016/j.jct.2016.09.028)", "key": {"[1]": {"test": "xn = mol fraction of the nth substance listed", "conditions": "100 kPa, Liquid, x1 = 1; for speed of sound: Frequency=3 MHz, Sing-around technique in a fixed-path interferometer; for mass density: Vibrating tube method"}, "[2]": {"conditions": "100 kPa, Liquid; for speed of sound: Frequency=3 MHz, Sing-around technique in a fixed-path interferometer; for mass density: Vibrating tube method"}}, "note": "± gives the expanded uncertainty stated by the source.", "data": [{"smiles": "CCn1cc[n+](C)c1.F[B-](F)(F)F", "note": "[1-ethyl-3-methylimidazolium tetrafluoroborate] + Nc1ccccc1", "values": [{"measurement": "speed of sound", "setting": "[1]; 293.15 K", "value": "1632.6 ± 2.4", "unit": "m/s"}, {"measurement": "mass density", "setting": "[1]; 293.15 K", "value": "1283.64 ± 1.7", "unit": "kg/m3"}, {"measurement": "speed of sound", "setting": "[1]; 303.15 K", "value": "1609.5 ± 2.4", "unit": "m/s"}, {"measurement": "mass density", "setting": "[1]; 303.15 K", "value": "1276.12 ± 1.7", "unit": "kg/m3"}, {"measurement": "speed of sound", "setting": "[1]; 313.15 K", "value": "1586.2 ± 2.4", "unit": "m/s"}, {"measurement": "mass density", "setting": "[1]; 313.15 K", "value": "1268.57 ± 1.6", "unit": "kg/m3"}, {"measurement": "speed of sound", "setting": "[1]; 323.15 K", "value": "1563.4 ± 2.3", "unit": "m/s"}, {"measurement": "mass density", "setting": "[1]; 323.15 K", "value": "1261.04 ± 1.6", "unit": "kg/m3"}]}, {"smiles": "CCn1cc[n+](C)c1.F[B-](F)(F)F", "note": "[1-ethyl-3-methylimidazolium tetrafluoroborate]", "values": [{"measurement": "speed of sound", "setting": "[2]; 293.15 K", "value": "1632.6 ± 2.4", "unit": "m/s"}, {"measurement": "mass density", "setting": "[2]; 293.15 K", "value": "1283.64 ± 1.7", "unit": "kg/m3"}, {"measurement": "speed of sound", "setting": "[2]; 303.15 K", "value": "1609.5 ± 2.4", "unit": "m/s"}, {"measurement": "mass density", "setting": "[2]; 303.15 K", "value": "1276.12 ± 1.7", "unit": "kg/m3"}, {"measurement": "speed of sound", "setting": "[2]; 313.15 K", "value": "1586.2 ± 2.4", "unit": "m/s"}, {"measurement": "mass density", "setting": "[2]; 313.15 K", "value": "1268.57 ± 1.6", "unit": "kg/m3"}, {"measurement": "speed of sound", "setting": "[2]; 323.15 K", "value": "1563.4 ± 2.3", "unit": "m/s"}, {"measurement": "mass density", "setting": "[2]; 323.15 K", "value": "1261.04 ± 1.6", "unit": "kg/m3"}]}]}
